Experimental data: patent US9994548B2, “Phenyl-substituted nicotinic ligands, and methods of use thereof” (Georgetown University, priority 2011, dated 2018)
Where two headings read alike, the source gives them in different places.

Legend:
α7 nAChR = target: T1, α7 nAChR (Rattus norvegicus, UniProt Q05941); assay: [3H]-epibatidine radioligand competition binding assay; conditions: competition against [3H]-epibatidine
T1 construct: expressed in transfected cells
Method: (§1) Stably transfected cell lines, tissue culture conditions, membrane preparation procedures and binding assays were described previously. Briefly, cultured cells at >80% confluence were removed from their flasks (80 cm^2) with a disposable cell scraper and placed in 10 mL of 50 mM Tris.HCl buffer (pH 7.4, 4° C.). The cell suspension was centrifuged at 10,000×g for 5 min and the pellet was collected. The cell pellet was then homogenized in 10 mL buffer with a polytron homogenizer and centrifuged at 36,000 g for 10 min at 4° C. The membrane pellet was resuspended in fresh buffer, and aliquots of the membrane preparation were used for binding assays. The concentration of [^3H]-epibatidine used was ˜500 pM for competition binding assays. […] Bound and free ligands were separated by vacuum filtration through Whatman GF/C filters treated with 0.5% polyethylenimine. The filter-retained radioactivity was measured by liquid scintillation counting. Specific binding was defined as the difference between total binding and nonspecific binding. Data from competition binding assays were analyzed using Prism 5 (GraphPad Software, San Diego, Calif.).
(§2) The in vitro binding affinities of the new ligands were measured for defined receptor subtypes (α2β2, α2β4, α3β2, α3β4, α4β2, α4β4, α6β2, α6β4, and α7) expressed in stably transfected cell lines. [^3H]Epibatidine ([^3H]EB) binds to the agonist recognition site of all of the defined receptor subtypes with high affinities. Rat forebrain homogenates were included to allow comparison between the heterologous and native α4β2 and α7 nAChRs. See FIG. 18 for binding affinity values (Ki) of the ligands at the three major nAChR subtypes (α3β4, […], and α7).
(§3) The binding affinities of all compounds synthesized for the receptor subtypes were examined in binding competition studies against [^3H]-epibatidine.

α3β4 nAChR = target: T2, α3β4 nAChR (Rattus norvegicus, UniProt P04757+P12392); assay: as above
T2 construct: expressed in transfected cells; host or cells: HEK 293 (KXα3β4R2)
Method: as §1, §2, §3

α4β2 nAChR = target: T3, α4β2 nAChR (Rattus norvegicus, UniProt P09483+P12390); assay: as above
T3 construct: expressed in transfected cells
Method: as §1, §2, §3

rat α3β4 nAChRs = target: T4, rat α3β4 nAChRs (Rattus norvegicus, UniProt P04757+P12392); assay: 86Rb+ efflux assay in stably transfected cells; assay type: cell-based; conditions: for IC50: 10 min pre-treatment before 100 μM (−)-nicotine, read-out: IC50(10′) α3β4 (desensitization potency); for agonist activity at α3β4 nAChRs: 86Rb+ efflux, rat α3β4
T4 construct: expressed in transfected cells; host or cells: HEK 293 (KXα3β4R2)
Method: (§4) The cell line expressing rat α3β4 nAChRs, KXα3β4R2, was established previously by stably transfecting HEK 293 cells with combinations of rat nAChR α3 and β4 subunit genes. The cell line expressing human α4β2 nAChRs, YXα4β2H1, were established recently (Tuan et al., 2012, manuscript in preparation). These cell lines were maintained in minimum essential medium (MEM) supplemented with 10% fetal bovine serum, 100 units/mL penicillin G, […] streptomycin and selective antibiotics at 37° C. with 5% CO2 in a humidified incubator. Tissue culture medium and antibiotics were obtained from Invitrogen Corporation (Carlsbad, Calif.), unless otherwise stated. Fetal bovine serum and horse serum were provided by Gemini Bio-Products (Woodland, Calif.).
(§5) Functional properties of compounds at nAChRs expressed in the transfected cells were measured using ^86Rb^+ efflux assays as described previously. In brief, cells were plated into 24-well plates coated with poly-D-lysine. The plated cells were grown at 37° C. for 18 to 24 hour to reach 85-95% confluence. The cells were then incubated in growth medium (0.5 mL/well) containing ^86Rb^+ (2 μCi/mL) for 4 hour at 37° C. The loading mixture was then aspirated, and the cells were washed four times with 1 mL buffer (15 mM HEPES, 140 mM NaCl, 2 mM KCl, 1 mM MgSO4, 1.8 mM CaCl2, 11 mM Glucose, pH 7.4). One mL of buffer with or without compounds to be tested was then added to each well. After incubation for 2 min, the assay buffer was collected for measurements of ^86Rb^+ released from the cells. Cells were then lysed by adding 1 mL of 100 mM NaOH to each well, and the lysate was collected for determination of the amount of ^86Rb^+ that was in the cells at the end of the efflux assay. Radioactivity of assay samples and lysates was measured by liquid scintillation counting. Total loading (cpm) was calculated as the sum of the assay sample and the lysate of each well. The amount of ^86Rb^+ efflux was expressed as a percentage of ^86Rb^+ loaded. […] For obtaining EC50 and Emax values, stimulation curves were constructed in which 8 different concentrations of a ligand were included in the assay. […] EC50, Emax and IC50(10′) values were determined by nonlinear least-squares regression analyses (GraphPad, San Diego, Calif.).
(§6) Functional properties of the new ligands were determined by ^86Rb^1 efflux assays in cells expressing α3β4 and α4β2 nAChR subtypes. Functional activity of each new ligand was measured in terms of its agonism, antagonism and desensitization ability.
(§7) Agonist activity of each of the ligands was tested at eight concentrations. […] The full concentration-effect curves generated potency (EC50) and efficacy (Emax) of each ligand.
(§8) Though the ^86Rb^+ efflux assays were the main methodology used to determine functional properties, whole-cell current measurements were also used to verify the key experiments.

human α4β2 nAChRs = target: T5, human α4β2 nAChRs (Homo sapiens, UniProt P17787+P43681); assay: 86Rb+ efflux assay in stably transfected cells; assay type: cell-based; conditions: for IC50: 10 min pre-treatment before 100 μM (−)-nicotine, read-out: IC50(10′) α4β2 (desensitization potency)
T5 construct: expressed in transfected cells
Method: as §4, §5, §6, §7, §8

[1] = test system: nicotine self-administration; conditions: subcutaneous, previous studies; cited from earlier work
[2] = human, in vivo; cited from earlier work
[3] = competition against [3H]-epibatidine, stably transfected cell membranes, read-out: Ki α3β4
[4] = competition against [3H]-epibatidine, stably transfected cell membranes, read-out: Ki α4β2
[5] = preincubated with the cells for 10 min

Row | SMILES | Ki (α7 nAChR) | Ki (α3β4 nAChR; [3]) | IC50 (human α4β2 nAChRs) | Ki (α4β2 nAChR) | also measured
1 | C(#Cc1cncc(OCC2CCC2)c1)c1ccccc1 [VMY-2-161, 3-(cyclobutylmethoxy)-5-(phenylethynyl)pyridine] | 410 µM | 1300 µM | 35 µM | – | Ki (α4β2 nAChR; [4]): 160000 nM; IC50 (rat α3β4 nAChRs): > 100 µM
2 | Fc1cc(F)cc(C#Cc2cncc(OC[C@@H]3CCN3)c2)c1 [VMY-2-113, (S)-3-(azetidin-2-ylmethoxy)-5-((3,5-difluorophenyl)ethynyl)pyridine] | 1.8 µM | – | – | 0.05 nM | Ki (α3β4 nAChR): 1.4 µM
3 | Fc1ccccc1C#Cc1cncc(OC[C@@H]2CCN2)c1 [VMY-2-105, (S)-3-(azetidin-2-ylmethoxy)-5-((2-fluorophenyl)ethynyl)pyridine] | 1.1 µM | 0.58 µM | 0.02 µM | 0.072 nM | –
4 | Fc1cccc(C#Cc2cncc(OC[C@@H]3CCN3)c2)c1 [VMY-2-109, (S)-3-(azetidin-2-ylmethoxy)-5-((3-fluorophenyl)ethynyl)pyridine] | 0.72 µM | 0.52 µM | 0.013 µM | 0.032 nM | –
5 | CN1CCCC1c1cccnc1 (centres unmarked) [nicotine, reference compound] | – | – | – | – | inhibition of nicotine activation of α4β2 receptors (human α4β2 nAChRs): inhibited
6 | Fc1ccc(C#Cc2cncc(OC[C@@H]3CCN3)c2)cc1 [VMY-2-101, (S)-3-(azetidin-2-ylmethoxy)-5-((4-fluorophenyl)ethynyl)pyridine] | 2 µM | 0.65 µM | 0.008 µM | 0.083 nM | –
7 | OCCCCC#Cc1cncc(OC[C@@H]2CCN2)c1 [Sazetidine-A, reference compound] | 1.6 µM | 1.9 µM | 0.0075 µM | – | lowest effective dose reducing nicotine self-administration [1]: 3 mg/kg; Ki (α4β2 nAChR; [4]): 0.062 nM; agonist activity at α3β4 nAChRs (rat α3β4 nAChRs): does not show agonist activity; IC50 (rat α3β4 nAChRs): > 10 µM; effect on the function of rat α3β4 nAChRs (rat α3β4 nAChRs; concentrations up to 10 μM): had no effect; IC50 (human α4β2 nAChRs; listed as Saz-A): 0.012 µM; inhibition of nicotine activation of α4β2 receptors (human α4β2 nAChRs; [5]): inhibited
8 | COc1cc(F)cc(C#Cc2cncc(OC[C@@H]3CCN3)c2)c1 [VMY-2-139, (S)-3-(azetidin-2-ylmethoxy)-5-((3-fluoro-5-methoxyphenyl)ethynyl)pyridine] | 1.5 µM | 1.3 µM | – | 0.076 nM | –
9 | Cc1cccc(C#Cc2cncc(OC[C@@H]3CCN3)c2)c1 [VMY-2-123, (S)-3-(azetidin-2-ylmethoxy)-5-(m-tolylethynyl)pyridine] | 0.2 µM | 4 µM | – | 0.046 nM | selectivity for α4β2 receptors over α3β4 receptors (Ki ratio) (α4β2 nAChR): 87,000 times
10 | CCCNCCOc1cncc(C#Cc2ccccc2)c1 [VMY-2-177, N-(2-(5-(phenylethynyl)pyridin-3-yloxy)ethyl)propan-1-amine] | 48 µM | 850 µM | 15 µM | – | Ki (α4β2 nAChR; [4]): 1100 nM; IC50 (rat α3β4 nAChRs): 12 µM
11 | CN1CC[C@H]1COc1cncc(C#Cc2ccccc2)c1 [VMY-2-205, (S)-3-((1-methylazetidin-2-yl)methoxy)-5-(phenylethynyl)pyridine] | 7.7 µM | 40 µM | 0.37 µM | 1.2 nM | binding weaker than VMY-2-95 (fold) (α4β2 nAChR; α4β2 binding affinity relative to (S)-N-H VMY-2-95): ~25 times; IC50 (rat α3β4 nAChRs): 22 µM
12 | Cc1cc(F)cc(C#Cc2cncc(OC[C@@H]3CCN3)c2)c1 [VMY-2-135, (S)-3-(azetidin-2-ylmethoxy)-5-((3-fluoro-5-methylphenyl)ethynyl)pyridine] | 0.59 µM | 1.1 µM | – | 0.043 nM | –
13 | Clc1cccc(C#Cc2cncc(OC[C@@H]3CCN3)c2)c1 [VMY-2-127, (S)-3-(azetidin-2-ylmethoxy)-5-((3-chlorophenyl)ethynyl)pyridine] | 0.48 µM | 3.4 µM | – | 0.093 nM | –
14 | c1cnc2cc3c(cc2n1)[C@@H]1CNC[C@H]3C1 [varenicline, reference compound] | – | – | – | – | agonist activity at α3β4 nAChRs (rat α3β4 nAChRs): near-full agonist activity; agonist activity at α4β2 receptors (human α4β2 nAChRs; 86Rb+ efflux, human α4β2): partial agonist activity; inhibition of nicotine activation of α4β2 receptors (human α4β2 nAChRs; [5]): inhibited; participants in clinical trials who reported nausea [2]: ~30%; participants in clinical trials who reported vomiting [2]: 18%; percentage of subjects who remained smoke-free for 12 months following treatment [2]: ~22%
15 | CN(C)c1cc(F)cc(C#Cc2cncc(OC[C@@H]3CCN3)c2)c1 [VMY-2-131, (S)-3-((5-(azetidin-2-ylmethoxy)pyridin-3-yl)ethynyl)-5-fluoro-N,N-dimethylaniline] | 0.25 µM | 1 µM | – | 0.031 nM | –
16 | FC(F)(F)c1cccc(C#Cc2cncc(OC[C@@H]3CCN3)c2)c1 [VMY-2-117, (S)-3-(azetidin-2-ylmethoxy)-5-((3-(trifluoromethyl)phenyl)ethynyl)pyridine] | 1.3 µM | 1.4 µM | – | 0.26 nM | selectivity for α4β2 receptors over α3β4 receptors (Ki ratio) (α4β2 nAChR): 5,400 times
17 | C(#Cc1cncc(OC[C@H]2CCN2)c1)c1ccccc1 [VMY-2-191, (R)-3-(azetidin-2-ylmethoxy)-5-(phenylethynyl)pyridine] | 1.6 µM | 1.7 µM | – | – | Ki (α4β2 nAChR; [4]): 0.11 nM
